In experiment [1] the target is Voltage-dependent L-type calcium channel subunit alpha-1C (Rattus norvegicus, UniProt P22002). The experiment is classed as functional.
The target of experiment [2] is T1, Type-1 angiotensin II receptor (Homo sapiens, UniProt P30556).
T1 sequence (P30556 whole entry): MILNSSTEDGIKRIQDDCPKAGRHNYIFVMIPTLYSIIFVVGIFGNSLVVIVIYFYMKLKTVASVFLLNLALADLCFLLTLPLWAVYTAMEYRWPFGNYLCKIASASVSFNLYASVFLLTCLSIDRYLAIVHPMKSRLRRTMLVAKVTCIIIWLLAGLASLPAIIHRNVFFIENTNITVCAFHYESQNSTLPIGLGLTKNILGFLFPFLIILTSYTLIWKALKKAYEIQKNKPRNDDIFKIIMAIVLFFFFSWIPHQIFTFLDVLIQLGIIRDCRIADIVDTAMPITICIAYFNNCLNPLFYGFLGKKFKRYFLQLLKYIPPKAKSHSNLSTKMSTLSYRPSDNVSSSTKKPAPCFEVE

A further experiment deals with Mu-type opioid receptor (Homo sapiens, UniProt P35372).
For experiment [3], the target named is T2, 5-hydroxytryptamine receptor 3A (Homo sapiens, UniProt P46098).
T2 sequence (P46098 whole entry): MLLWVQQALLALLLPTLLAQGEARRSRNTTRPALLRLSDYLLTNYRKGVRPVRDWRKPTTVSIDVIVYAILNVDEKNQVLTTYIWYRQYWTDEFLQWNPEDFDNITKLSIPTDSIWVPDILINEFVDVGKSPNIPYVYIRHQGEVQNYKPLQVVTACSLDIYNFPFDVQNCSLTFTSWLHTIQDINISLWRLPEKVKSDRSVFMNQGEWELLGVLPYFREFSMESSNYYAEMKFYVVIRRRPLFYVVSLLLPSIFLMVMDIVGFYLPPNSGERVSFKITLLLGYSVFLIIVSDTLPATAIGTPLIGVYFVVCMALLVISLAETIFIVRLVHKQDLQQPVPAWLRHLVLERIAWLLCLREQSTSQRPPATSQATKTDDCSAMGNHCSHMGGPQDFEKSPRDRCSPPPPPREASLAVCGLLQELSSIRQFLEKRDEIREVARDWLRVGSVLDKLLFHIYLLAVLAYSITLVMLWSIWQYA
The experiment is classed as functional.

Experiment [4] concerns the target T3, 5-hydroxytryptamine receptor 1A (Homo sapiens, UniProt P08908).
T3 sequence (P08908 whole entry): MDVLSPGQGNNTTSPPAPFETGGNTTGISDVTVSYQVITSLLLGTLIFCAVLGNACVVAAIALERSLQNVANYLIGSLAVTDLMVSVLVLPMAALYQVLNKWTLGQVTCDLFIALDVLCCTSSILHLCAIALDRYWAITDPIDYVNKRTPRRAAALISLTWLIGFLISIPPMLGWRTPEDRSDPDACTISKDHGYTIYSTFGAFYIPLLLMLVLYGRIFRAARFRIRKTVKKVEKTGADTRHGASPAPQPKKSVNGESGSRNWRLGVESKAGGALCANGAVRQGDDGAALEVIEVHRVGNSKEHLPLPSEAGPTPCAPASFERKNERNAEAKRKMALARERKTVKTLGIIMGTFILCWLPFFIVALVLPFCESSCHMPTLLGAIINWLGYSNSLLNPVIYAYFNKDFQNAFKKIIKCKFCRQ
The class given is functional, cell-based.

Experiment [5] concerns the target T4, Cholecystokinin receptor type A (Homo sapiens, UniProt P32238).
T4 sequence (P32238 whole entry): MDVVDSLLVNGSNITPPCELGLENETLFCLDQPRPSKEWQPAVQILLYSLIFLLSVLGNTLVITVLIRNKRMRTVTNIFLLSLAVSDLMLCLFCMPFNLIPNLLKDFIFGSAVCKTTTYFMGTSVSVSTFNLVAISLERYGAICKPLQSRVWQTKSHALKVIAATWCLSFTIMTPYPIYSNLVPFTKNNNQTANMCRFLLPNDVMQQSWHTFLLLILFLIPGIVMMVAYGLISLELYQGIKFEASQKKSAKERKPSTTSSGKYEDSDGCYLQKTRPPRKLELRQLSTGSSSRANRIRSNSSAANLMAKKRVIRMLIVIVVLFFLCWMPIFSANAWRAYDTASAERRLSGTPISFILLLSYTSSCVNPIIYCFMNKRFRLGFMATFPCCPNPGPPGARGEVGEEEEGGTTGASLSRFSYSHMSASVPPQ

In experiment [6] the target is T5, Alpha-2C adrenergic receptor (Homo sapiens, UniProt P18825).
T5 sequence (P18825 whole entry): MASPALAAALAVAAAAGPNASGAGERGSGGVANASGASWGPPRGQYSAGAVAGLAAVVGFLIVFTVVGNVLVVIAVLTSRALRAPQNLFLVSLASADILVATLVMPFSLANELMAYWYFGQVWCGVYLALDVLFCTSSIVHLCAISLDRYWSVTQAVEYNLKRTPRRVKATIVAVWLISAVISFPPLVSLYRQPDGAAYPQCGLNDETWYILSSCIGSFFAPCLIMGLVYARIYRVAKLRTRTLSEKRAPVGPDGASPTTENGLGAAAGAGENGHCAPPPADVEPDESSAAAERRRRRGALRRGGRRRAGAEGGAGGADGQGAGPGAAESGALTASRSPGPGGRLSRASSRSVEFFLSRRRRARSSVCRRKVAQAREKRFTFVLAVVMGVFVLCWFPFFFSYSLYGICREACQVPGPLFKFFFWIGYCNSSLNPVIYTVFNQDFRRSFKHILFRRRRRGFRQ
The class given is functional.

A further experiment deals with T6, Estrogen receptor (Homo sapiens, UniProt P03372).
T6 sequence (P03372 whole entry): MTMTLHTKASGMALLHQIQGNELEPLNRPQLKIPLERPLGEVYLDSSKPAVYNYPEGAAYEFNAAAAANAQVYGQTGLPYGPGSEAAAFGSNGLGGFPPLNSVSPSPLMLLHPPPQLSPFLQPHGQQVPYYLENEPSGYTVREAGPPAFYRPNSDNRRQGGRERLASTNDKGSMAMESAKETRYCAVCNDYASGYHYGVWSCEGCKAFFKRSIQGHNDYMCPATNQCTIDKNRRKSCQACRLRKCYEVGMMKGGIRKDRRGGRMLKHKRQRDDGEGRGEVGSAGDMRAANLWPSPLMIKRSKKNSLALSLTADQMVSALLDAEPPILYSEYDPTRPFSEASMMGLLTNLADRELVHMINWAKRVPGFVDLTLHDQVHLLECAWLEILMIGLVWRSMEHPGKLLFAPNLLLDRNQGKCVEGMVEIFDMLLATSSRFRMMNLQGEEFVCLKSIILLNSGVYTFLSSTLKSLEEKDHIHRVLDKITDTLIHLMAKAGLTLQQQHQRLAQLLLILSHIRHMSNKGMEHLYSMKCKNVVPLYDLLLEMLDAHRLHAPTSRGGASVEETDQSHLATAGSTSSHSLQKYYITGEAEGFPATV

The target of a further experiment is D(1A) dopamine receptor (Homo sapiens, UniProt P21728). The experiment is classed as functional, cell-based.
Note: assay procedure not described here.

Sequence of Mu-type opioid receptor (P35372 whole entry): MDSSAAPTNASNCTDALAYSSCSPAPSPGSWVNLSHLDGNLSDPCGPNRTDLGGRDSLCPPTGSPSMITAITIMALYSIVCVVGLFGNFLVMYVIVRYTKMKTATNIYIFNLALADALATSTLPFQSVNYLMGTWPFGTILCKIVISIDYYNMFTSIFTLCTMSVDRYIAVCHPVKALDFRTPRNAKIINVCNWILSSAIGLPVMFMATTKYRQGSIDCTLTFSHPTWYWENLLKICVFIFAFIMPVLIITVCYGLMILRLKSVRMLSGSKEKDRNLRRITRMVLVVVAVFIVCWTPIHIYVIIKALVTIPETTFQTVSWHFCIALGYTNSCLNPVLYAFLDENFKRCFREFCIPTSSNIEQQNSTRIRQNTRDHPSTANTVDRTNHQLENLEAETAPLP
Sequence of Voltage-dependent L-type calcium channel subunit alpha-1C (P22002 whole entry): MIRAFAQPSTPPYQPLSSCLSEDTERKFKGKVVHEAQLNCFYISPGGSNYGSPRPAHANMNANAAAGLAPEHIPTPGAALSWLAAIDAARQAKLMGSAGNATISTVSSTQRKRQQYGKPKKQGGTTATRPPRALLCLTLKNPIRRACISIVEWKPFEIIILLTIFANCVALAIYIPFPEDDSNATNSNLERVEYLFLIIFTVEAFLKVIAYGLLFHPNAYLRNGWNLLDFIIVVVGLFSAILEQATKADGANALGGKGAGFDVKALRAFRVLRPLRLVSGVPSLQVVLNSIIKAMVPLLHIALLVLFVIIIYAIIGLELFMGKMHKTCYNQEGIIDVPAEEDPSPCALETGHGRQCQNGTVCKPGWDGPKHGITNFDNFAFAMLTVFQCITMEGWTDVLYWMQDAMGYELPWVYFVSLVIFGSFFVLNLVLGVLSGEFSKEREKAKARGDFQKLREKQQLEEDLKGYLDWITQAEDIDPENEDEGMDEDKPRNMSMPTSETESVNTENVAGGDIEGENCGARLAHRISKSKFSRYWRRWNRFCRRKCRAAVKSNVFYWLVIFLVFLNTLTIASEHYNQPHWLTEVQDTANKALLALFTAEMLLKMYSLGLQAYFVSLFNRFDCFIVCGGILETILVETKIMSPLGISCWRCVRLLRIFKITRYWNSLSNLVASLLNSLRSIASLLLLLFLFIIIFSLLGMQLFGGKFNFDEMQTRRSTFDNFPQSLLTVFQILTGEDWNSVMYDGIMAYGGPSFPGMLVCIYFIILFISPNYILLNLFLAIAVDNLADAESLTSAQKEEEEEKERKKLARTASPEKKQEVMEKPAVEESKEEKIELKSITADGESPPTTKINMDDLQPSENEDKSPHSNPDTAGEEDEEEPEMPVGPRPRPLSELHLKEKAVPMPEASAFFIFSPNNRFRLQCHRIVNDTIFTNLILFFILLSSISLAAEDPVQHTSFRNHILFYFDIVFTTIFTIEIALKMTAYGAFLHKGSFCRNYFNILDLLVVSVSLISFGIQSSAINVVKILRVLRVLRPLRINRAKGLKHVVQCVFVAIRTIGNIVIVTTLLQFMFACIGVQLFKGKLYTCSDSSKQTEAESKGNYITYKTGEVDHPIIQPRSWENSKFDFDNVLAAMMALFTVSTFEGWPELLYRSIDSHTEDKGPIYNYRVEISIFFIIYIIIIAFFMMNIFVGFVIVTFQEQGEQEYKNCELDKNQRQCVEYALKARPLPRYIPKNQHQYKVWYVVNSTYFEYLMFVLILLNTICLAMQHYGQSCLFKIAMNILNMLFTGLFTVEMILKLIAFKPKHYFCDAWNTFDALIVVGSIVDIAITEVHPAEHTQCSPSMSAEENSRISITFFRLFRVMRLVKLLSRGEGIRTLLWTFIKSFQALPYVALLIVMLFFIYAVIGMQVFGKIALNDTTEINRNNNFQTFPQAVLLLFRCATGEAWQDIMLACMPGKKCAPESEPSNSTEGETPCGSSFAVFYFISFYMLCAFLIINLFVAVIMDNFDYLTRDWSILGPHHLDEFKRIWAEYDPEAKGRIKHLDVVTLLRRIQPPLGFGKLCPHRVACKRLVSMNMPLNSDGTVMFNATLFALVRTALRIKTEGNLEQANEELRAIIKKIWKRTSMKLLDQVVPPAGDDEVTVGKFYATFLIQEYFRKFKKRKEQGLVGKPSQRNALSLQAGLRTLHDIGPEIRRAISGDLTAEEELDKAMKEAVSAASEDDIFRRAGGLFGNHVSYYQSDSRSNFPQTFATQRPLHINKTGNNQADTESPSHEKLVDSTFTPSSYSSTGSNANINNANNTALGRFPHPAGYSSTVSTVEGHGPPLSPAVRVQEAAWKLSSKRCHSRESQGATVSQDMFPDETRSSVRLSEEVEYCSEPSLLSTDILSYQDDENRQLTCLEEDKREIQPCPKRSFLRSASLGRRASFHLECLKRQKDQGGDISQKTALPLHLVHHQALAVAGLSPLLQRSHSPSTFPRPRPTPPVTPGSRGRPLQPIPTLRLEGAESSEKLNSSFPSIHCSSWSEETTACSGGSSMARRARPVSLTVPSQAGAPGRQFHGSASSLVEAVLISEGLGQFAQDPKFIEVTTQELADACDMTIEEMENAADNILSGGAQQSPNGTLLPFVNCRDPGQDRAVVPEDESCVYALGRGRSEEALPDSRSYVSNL
Sequence of D(1A) dopamine receptor (P21728 whole entry): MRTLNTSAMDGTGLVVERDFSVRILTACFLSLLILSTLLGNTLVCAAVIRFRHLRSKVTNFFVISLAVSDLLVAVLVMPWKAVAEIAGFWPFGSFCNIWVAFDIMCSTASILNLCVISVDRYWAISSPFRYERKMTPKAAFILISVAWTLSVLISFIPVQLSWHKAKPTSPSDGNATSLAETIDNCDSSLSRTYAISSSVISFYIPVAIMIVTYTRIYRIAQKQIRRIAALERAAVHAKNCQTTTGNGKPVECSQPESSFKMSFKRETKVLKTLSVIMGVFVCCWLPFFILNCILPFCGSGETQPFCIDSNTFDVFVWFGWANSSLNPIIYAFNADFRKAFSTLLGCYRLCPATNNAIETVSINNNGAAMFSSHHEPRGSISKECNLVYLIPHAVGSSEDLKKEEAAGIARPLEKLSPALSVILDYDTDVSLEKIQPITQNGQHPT

Regarding `CCN(CC)CCCN(c1ccccc1)C1Cc2ccccc2C1` [APRINDINE], the AC50 in experiment [1] was greater than 10 µM; in experiment [2], greater than 30 µM; at Mu-type opioid receptor, 19 µM; in [3], greater than 30 µM; in [4] it was greater than 10 µM; in experiment [5] it was greater than 30 µM. The AC50 was 7.9 µM in [6], greater than 30 µM at Estrogen receptor and greater than 30 µM on D(1A) dopamine receptor.
In the case of `CN(Cc1ccc(C(C)(C)C)cc1)Cc1cccc2ccccc12` [BUTENAFINE], the AC50 in experiment [1] is greater than 10 µM; in experiment [2], greater than 10 µM; on Mu-type opioid receptor, greater than 30 µM; in experiment [3] it was greater than 30 µM; in experiment [4], greater than 10 µM; in experiment [5], greater than 10 µM. Besides, the AC50 in experiment [6] was greater than 10 µM; on Estrogen receptor it was greater than 30 µM; at D(1A) dopamine receptor, greater than 10 µM.
For `COc1ccc(C(Cl)=C(c2ccc(OC)cc2)c2ccc(OC)cc2)cc1` [CHLOROTRIANISENE], the AC50 in experiment [1] was greater than 10 µM; in experiment [2], greater than 30 µM; on Mu-type opioid receptor, greater than 30 µM; in experiment [3], greater than 30 µM; in experiment [4], greater than 10 µM; in experiment [5] it was greater than 30 µM. Further, the AC50 in experiment [6] was greater than 30 µM; on Estrogen receptor, 0.817 µM; at D(1A) dopamine receptor it was greater than 30 µM.
`Oc1cc(O)c2c(c1)O[C@H](c1ccc(O)c(O)c1)[C@@H](O)C2` [CIANIDANOL]: the AC50 in experiment [1] is greater than 10 µM; in experiment [2] it was greater than 30 µM; on Mu-type opioid receptor, greater than 30 µM; in experiment [3], greater than 30 µM; in experiment [4] it was greater than 10 µM; in [5] it was greater than 30 µM. Moreover, the AC50 in [6] was greater than 10 µM; at Estrogen receptor it was greater than 30 µM; at D(1A) dopamine receptor, greater than 10 µM.
Turning to `Nc1nc(Cl)nc2c1ncn2[C@@H]1O[C@H](CO)[C@@H](O)[C@@H]1F` [CLOFARABINE], the AC50 (in experiment [1]; in experiment [2]; at Mu-type opioid receptor; in [3]; in [4]; in experiment [5]) was greater than 30 µM each time. Also, the AC50 (in experiment [6]; on Estrogen receptor; on D(1A) dopamine receptor) was greater than 30 µM throughout.
Consider `O=C1CN=C(c2ccccc2Cl)c2cc([N+](=O)[O-])ccc2N1` [CLONAZEPAM], for which the AC50 in experiment [1] is greater than 10 µM; in [2], greater than 30 µM; on Mu-type opioid receptor, greater than 30 µM; in experiment [3], greater than 30 µM; in experiment [4] it was greater than 10 µM; in experiment [5], greater than 30 µM. Besides, the AC50 in [6] is greater than 10 µM; on Estrogen receptor, greater than 30 µM; at D(1A) dopamine receptor, greater than 10 µM.
`C=C(c1ccccc1OCc1cccc(Cl)c1)n1ccnc1` [CROCONAZOLE]: the AC50 in experiment [1] is 18.8 µM; in experiment [2], greater than 30 µM; on Mu-type opioid receptor, greater than 30 µM; in experiment [3], greater than 30 µM; in experiment [4], 24 µM; in experiment [5] it was greater than 30 µM. Also, the AC50 in experiment [6] is greater than 10 µM; at Estrogen receptor it was greater than 30 µM; on D(1A) dopamine receptor, greater than 10 µM.
On to `CC1CC(OC(=O)C(O)c2ccccc2)CC(C)(C)C1` (configuration not stated) [CYCLANDELATE], for which the AC50 in [1] was greater than 10 µM; in experiment [2], greater than 10 µM; on Mu-type opioid receptor it was greater than 30 µM; in experiment [3], greater than 30 µM; in experiment [4], greater than 10 µM; in experiment [5], greater than 10 µM. The results for the AC50 (in [6]; on Estrogen receptor; on D(1A) dopamine receptor) were greater than 10 µM, greater than 30 µM and greater than 10 µM, respectively.
Consider `CN(C)CCOC(=O)C(c1ccccc1)C1(O)CCCC1` (configuration not stated) [CYCLOPENTOLATE], for which the AC50 in experiment [1] is greater than 10 µM; in experiment [2] it was greater than 10 µM; on Mu-type opioid receptor, greater than 30 µM; in [3] it was greater than 30 µM; in experiment [4], greater than 10 µM; in experiment [5] it was greater than 10 µM. For the same compound, the AC50 was greater than 30 µM in experiment [6], greater than 10 µM on Estrogen receptor and greater than 10 µM at D(1A) dopamine receptor.
With `COC(=O)[C@H]1[C@H]2C[C@@H]3c4[nH]c5ccccc5c4CCN3C[C@H]2C[C@@H](OC(=O)c2cc(OC)c(OC)c(OC)c2)[C@@H]1OC` [DESERPIDINE], the AC50 is greater than 10 µM in [1]; greater than 10 µM in [2]; 8.3 µM at Mu-type opioid receptor; greater than 30 µM in experiment [3]; greater than 10 µM in experiment [4]; 34.4 µM in [5]. Further, the AC50 was 12 µM in [6], greater than 30 µM at Estrogen receptor and greater than 10 µM on D(1A) dopamine receptor.
On to `CCN(CC)C(C)C(=O)c1ccccc1` (configuration not stated) [DIETHYLPROPION], for which the AC50 in experiment [1] was greater than 10 µM; in experiment [2], greater than 30 µM; at Mu-type opioid receptor, greater than 30 µM; in [3] it was greater than 30 µM; in experiment [4], greater than 10 µM; in experiment [5], greater than 30 µM. Besides, the AC50 was greater than 10 µM in experiment [6], greater than 30 µM on Estrogen receptor and greater than 10 µM at D(1A) dopamine receptor.
With `CCC1(C)CC(=O)NC1=O` (configuration not stated) [ETHOSUXIMIDE], the AC50 was greater than 10 µM in experiment [1]; greater than 10 µM in experiment [2]; greater than 30 µM at Mu-type opioid receptor; greater than 30 µM in [3]; greater than 10 µM in experiment [4]; greater than 10 µM in experiment [5]. Also, the AC50 in [6] was greater than 10 µM; on Estrogen receptor it was greater than 10 µM; at D(1A) dopamine receptor it was greater than 30 µM.
For `Cc1ccc(-c2ncc(Cl)cc2-c2ccc(S(C)(=O)=O)cc2)cn1` [ETORICOXIB], the AC50 (in [1]; in [2]; at Mu-type opioid receptor; in [3]; in experiment [4]; in experiment [5]) was greater than 10 µM each time. Also, the AC50 was greater than 10 µM in experiment [6], greater than 30 µM at Estrogen receptor and greater than 10 µM at D(1A) dopamine receptor.

In general, AC50 refers to the concentration giving half of the maximal activity seen.

Values taken from ChEMBL document CHEMBL5291721, “A preclinical secondary pharmacology resource illuminates target-adverse drug reaction associations of marketed drugs” (Nat Commun, 2023).
